The values below come from PubChem BioAssay (NCI).

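The compound was tested at five concentrations on cells cultured in 96-well plates, with a 48-hour exposure period. TGI: total growth inhibition.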

Test systems include DLD-1 colon; DMS 114 small cell lung; DMS 273 small cell lung; HCT-15 colon; HL-60(TB) leukemia; HOP-18 NSCLC; K-562 leukemia; KM12 colon; KM20L2 colon; LXFL 529 NSCLC; RXF 393 renal; SF-268 CNS; SNB-75 CNS; SNB-78 CNS; SW-620 colon; XF 498 CNS; M19-MEL melanoma; MDA-MB-435.
Common to all, as to experiment: growth of human tumour cells (NCI), 48 h

As for `Cc1ccc([N+](=O)[O-])cc1NC(=O)/C(=N/NC(=S)NN)C1SC(=S)NC1=O` (stereo not drawn), the TGI in the experiment with DLD-1 colon, in the experiment on DMS 114 small cell lung, in the experiment with DMS 273 small cell lung, in the experiment on HCT-15 colon, in the experiment on HL-60(TB) leukemia and in the experiment on HOP-18 NSCLC was over 100 µM throughout. In addition, the TGI in the experiment with K-562 leukemia, with KM12 colon, in the experiment with KM20L2 colon, in the experiment on LXFL 529 NSCLC, with RXF 393 renal and in the experiment with SF-268 CNS was over 100 µM in each case. Besides, the TGI with SNB-75 CNS, in the experiment with SNB-78 CNS, with SW-620 colon and with XF 498 CNS was over 100 µM in each case.

Regarding `N#C/C(c1nc2ccccc2[nH]1)=c1\s/c(=C/c2ccc(Cl)cc2)c(=O)n1-c1ccccc1`, the TGI with DLD-1 colon, with DMS 114 small cell lung, in the experiment on DMS 273 small cell lung, in the experiment with HCT-15 colon, in the experiment on HL-60(TB) leukemia and with HOP-18 NSCLC was over 100 µM throughout. In addition, the TGI in the experiment on K-562 leukemia, in the experiment with KM12 colon, with KM20L2 colon, in the experiment on LXFL 529 NSCLC, in the experiment on M19-MEL melanoma and in the experiment on SF-268 CNS was over 100 µM each time. Further, the TGI in the experiment on SNB-75 CNS, in the experiment on SW-620 colon and with XF 498 CNS was over 100 µM each time.

With `CCC12CCCN(Cc3ccccc3)C1c1c(n(C)c3ccccc13)C(C(=O)OC)C2` (stereo not drawn), the TGI with DLD-1 colon, in the experiment with DMS 114 small cell lung, with DMS 273 small cell lung, in the experiment with HCT-15 colon, with HL-60(TB) leukemia and with K-562 leukemia was over 239 µM in each case. The TGI in the experiment with KM12 colon, in the experiment on KM20L2 colon, in the experiment with LXFL 529 NSCLC, with M19-MEL melanoma, in the experiment with RXF 393 renal and in the experiment on SF-268 CNS was over 239 µM in each case. Moreover, the TGI in the experiment with SW-620 colon is over 239 µM; with XF 498 CNS, 118 µM.

For the compound `Nc1nc(SCc2ccc([N+](=O)[O-])cc2)nc2c1ncn2C1OC(CO)C(O)C1O` (stereo not drawn), the TGI with DLD-1 colon, in the experiment on DMS 114 small cell lung, in the experiment with DMS 273 small cell lung, in the experiment on HCT-15 colon, in the experiment with HL-60(TB) leukemia and in the experiment on K-562 leukemia was over 100 µM in each case. The TGI in the experiment with KM12 colon, in the experiment with KM20L2 colon, in the experiment with LXFL 529 NSCLC, in the experiment with M19-MEL melanoma, in the experiment with RXF 393 renal and in the experiment with SF-268 CNS was over 100 µM each time. Also, the TGI in the experiment with SNB-78 CNS, with SW-620 colon and in the experiment on XF 498 CNS was over 100 µM in each case.

As for `CN(C)C(=S)/N=c1\ssc(=S)n1Cc1ccccc1`, the TGI is over 55.1 µM with DLD-1 colon; 0.456 µM with DMS 114 small cell lung; over 49.6 µM in the experiment with HCT-15 colon; 5.31 µM in the experiment on HL-60(TB) leukemia; over 100 µM in the experiment on HOP-18 NSCLC; 12.5 µM with K-562 leukemia. Also, the TGI is over 100 µM in the experiment on KM12 colon; 0.388 µM with KM20L2 colon; over 100 µM with LXFL 529 NSCLC; over 100 µM in the experiment on M19-MEL melanoma; 0.269 µM with MDA-MB-435; 1 µM in the experiment with RXF 393 renal. The TGI was over 63.1 µM in the experiment with SF-268 CNS, 3.29 µM in the experiment with SNB-75 CNS, over 100 µM in the experiment with SNB-78 CNS and over 46.4 µM in the experiment with SW-620 colon.

On to `CN1c2ccccc2N(C(=O)c2ccc(Cl)cc2)C(CC(=O)O)c2cccn21` (stereo not drawn), for which the TGI with DLD-1 colon, in the experiment on DMS 114 small cell lung, with DMS 273 small cell lung, with HCT-15 colon, in the experiment with HL-60(TB) leukemia and in the experiment with K-562 leukemia was over 100 µM in each case. Moreover, the TGI in the experiment on KM12 colon, in the experiment on KM20L2 colon, with LXFL 529 NSCLC, in the experiment on M19-MEL melanoma, in the experiment on RXF 393 renal and with SF-268 CNS was over 100 µM throughout. Besides, the TGI in the experiment with SNB-75 CNS, in the experiment on SNB-78 CNS, in the experiment on SW-620 colon and in the experiment with XF 498 CNS was over 100 µM throughout.

Consider `CCOC(=O)/C=C/n1c2ccccc2c(=O)c2ccccc21`, for which the TGI in the experiment with DLD-1 colon, in the experiment with DMS 114 small cell lung, in the experiment with DMS 273 small cell lung, in the experiment on HCT-15 colon, in the experiment with HL-60(TB) leukemia and in the experiment on K-562 leukemia was over 100 µM in each case. The TGI with KM12 colon, with KM20L2 colon, in the experiment on LXFL 529 NSCLC, in the experiment with M19-MEL melanoma, with RXF 393 renal and in the experiment on SF-268 CNS was over 100 µM throughout. In addition, the TGI in the experiment on SW-620 colon and in the experiment on XF 498 CNS was over 100 µM each time.

Consider `CCn1c(SCC(=O)NNC(=S)Nc2ccc([N+](=O)[O-])cc2)nc2ccccc2c1=O`, for which the TGI with HCT-15 colon, in the experiment with HL-60(TB) leukemia, with K-562 leukemia, in the experiment with KM12 colon, in the experiment with MDA-MB-435 and in the experiment with RXF 393 renal was over 100 µM in each case. The TGI in the experiment on SF-268 CNS, in the experiment on SNB-75 CNS and in the experiment with SW-620 colon was over 100 µM each time.

With `COC(=O)CNS(=O)(=O)c1ccc(-c2c3nc(c(-c4ccc(S(=O)(=O)NCC(=O)OC)cc4)c4ccc([nH]4)c(-c4ccc(S(=O)(=O)NCC(=O)OC)cc4)c4nc(c(-c5ccc(S(=O)(=O)NCC(=O)OC)cc5)c5ccc2[nH]5)C=C4)C=C3)cc1`, the TGI in the experiment with HCT-15 colon, in the experiment on HL-60(TB) leukemia, in the experiment on K-562 leukemia, in the experiment on KM12 colon, in the experiment on MDA-MB-435 and in the experiment with RXF 393 renal was over 100 µM each time. Besides, the TGI in the experiment on SF-268 CNS, in the experiment with SNB-75 CNS and in the experiment on SW-620 colon was over 100 µM throughout.

On to `CC(=O)OCC1OC(OC2CC3C(C)(C)C(OC(C)=O)CC[C@]3(C)C3CCC45CC4(CCC5[C@@H](C)C[C@H](O)C(O)C(C)(C)O)[C@]23C)C(O)C(O)C1O` (stereo partly drawn), for which the TGI in the experiment with HCT-15 colon, in the experiment on HL-60(TB) leukemia, with K-562 leukemia, in the experiment with KM12 colon, in the experiment with MDA-MB-435 and with RXF 393 renal was over 10 µM in each case. Moreover, the TGI in the experiment with SF-268 CNS, in the experiment with SNB-75 CNS and in the experiment with SW-620 colon was over 10 µM in each case.
